Assay results: PubChem BioAssay AID2305 (GlaxoSmithKline (GSK), 2010)
Where “and” joins values, the source holds several entries; their conditions need not be identical. Equal values may be shown once.

The compounds below were run on P. falciparum 3D7 growth, pLDH absorbance (assay: blood-stage malaria parasite growth potency – strain 3D7, dose response (AID 2305)).

SMILES	IC50
Cc1cc(Nc2ccc(OCc3ccccc3Cl)cc2)c2cc(Cl)ccc2n1	0.43 µM
c1cncc(Oc2ccc(Nc3ccnc4cc(-c5cccc(CN6CCCCC6)c5)ccc34)cc2)c1	0.12 µM
C[C@H](NC(=O)C1CCCC1)C(=O)Nc1ccc(-c2ccc(-c3nc4ccc(C(F)(F)F)cc4[nH]3)cc2)cc1	0.27 µM
Cc1[nH]c(C)c(-c2ccc(C(=O)c3ccc(Cl)cc3)cc2)c(=O)c1Cl	0.53 µM
CCOC(=O)c1cnc2c(OC)cc(OC)c(Cl)c2c1Nc1cccc(C)c1C	0.31 µM
CC(C)(C)c1ccc(Cn2nc(C(=O)N3CCN(C(=O)C4CCCO4)CC3)c3ccccc32)cc1 (stereo unspecified)	1.32 µM
O=C(c1ccc(Cl)cc1)N1CCOC(CCN2CCC(c3ccccc3)CC2)(c2ccc(Cl)c(Cl)c2)C1 (stereo unspecified)	0.24 µM
c1ccc2cc3c(NCCN4CCOCC4)ccnc3cc2c1	0.17 µM
Fc1cccc(Cn2ncc3cc(Nc4ncnc5sc(C#Cc6ncc[nH]6)cc45)ccc32)c1	1.8 µM
COc1ccc2nc(-c3cccc(C)n3)nc(Nc3ccncc3)c2c1	0.67 µM
O=C(/C=C/c1ccc(Cl)c(Cl)c1)NCCCCCN1CCC(NC(=O)Nc2cccc(Cl)c2)CC1	0.75 µM
Cc1cccc2[nH]c(-c3ccc(-c4cccc(NC(=O)Cc5cnc[nH]5)c4)cc3)nc12	0.9 µM
CC(Cc1ccc(OCCCCOc2ccccc2)cc1)NCCC1CCCN1C (stereo unspecified)	0.04 µM
CCCNC(=O)Nc1cc2cc(-c3cccc(CN4CCCCC4)c3)ccc2n2c(C)nnc12	1.11 µM
OCCN1CCN(Cc2ccc(-c3ccc(-c4nc5ccc(F)cc5[nH]4)cc3)cc2)CC1	0.57 µM
O=C(Nc1cccc(-c2ccc(-c3nc4ccc(C(F)(F)F)cc4[nH]3)cc2)c1)c1ccncc1	0.34 µM
CN(C)CCOc1ccnc2ccc(NC(=O)Cc3ccc(-c4ccncc4)c4ccccc34)cc12	0.28 µM
COc1cccc(N(CCCN2C(=O)c3cccc4cccc(c34)C2=O)C(=O)c2ccccc2C)c1	0.79 µM
COc1cc2c(cc1N1C[C@@H](C)N[C@@H](C)C1)N(C(=O)c1ccc(-c3ccc(-c4ncc[nH]4)cc3C)cc1)CC2	0.72 µM
CCc1ccccc1N1CCN(CCCC(=O)c2ccc(NC(=O)c3ccc(Cl)cc3)cc2)CC1	1.31 µM
O=C(NCc1ccccc1)Nc1ccc(-c2cccc(-c3nc4ccc(C(F)(F)F)cc4[nH]3)c2)cc1	0.66 µM
COc1ccc(NC(=O)Nc2ccc(C)c(-c3ccc(C(=O)Nc4ccncc4)cc3)c2)cc1	0.57 µM
CC1CN=C(Nc2ncc(Cl)cc2Cl)N1 (stereo unspecified)	0.24 µM
CC(C)NCc1cccc(-c2cccc(NC(=O)c3ccc(C#N)cc3)c2)c1	0.65 µM

SMILES	IC50
CC(O)C1CCCCN1C(=O)c1ccc(-c2ccc(-c3nc4ccc(F)cc4[nH]3)cc2)cc1 (stereo unspecified)	0.44 µM
CN(c1ncc(-c2cccc(CNCc3ccccc3O)c2)cn1)C1CCCCC1	0.82 µM
CC(C)CCN1CCC(Oc2ccc(NC(=O)c3ccco3)cc2Cl)CC1	0.68 µM
Cc1ccc(CC(C)NCC(O)c2cccc(Cl)c2)cc1 (stereo unspecified)	0.93 µM
COc1ccc2nc3cc(Cl)ccc3c(Nc3ccc(C(=O)O)cc3)c2c1	0.3 µM
Clc1cccc(C=NNc2nc(Nc3ccccc3)nc(Nc3ccccc3)n2)c1	0.84 µM
CCCCCCC1(C)N=C(N)N=C(N)C1c1ccc(Cl)c(Cl)c1 (stereo unspecified)	0.13 µM
Cc1ccccc1C1CCN(C2CCC(NC(=O)/C=C/c3ccc(OC(F)(F)F)cc3)CC2)CC1 (stereo unspecified)	0.86 µM
Cc1[nH]c2ccccc2c1C1=CCN(CCN2CCCc3c(Br)cccc3C2=O)CC1	0.66 µM
N#Cc1ccc2[nH]cc(-c3cn4cc(SC5CCCC5)ccc4n3)c2c1	0.94 µM
C=CCc1cc(Br)ccc1OCCCOc1c(N)nc(N)nc1N	0.19 µM
O[C@@H](c1ccccc1)[C@@H]1CN(CCc2ccccc2)CC[C@@]1(O)c1ccccc1	1.04 µM
CC1CCCN1Cc1ccc(-c2ccc3c(=O)cc(CCc4cccc(F)c4F)n(CC(=O)N(C)Cc4ccc(-c5ccc(C(F)(F)F)cc5)cc4)c3n2)cc1 (stereo unspecified)	0.82 µM
O=C(/C=C/c1ccc(Cl)c(Cl)c1)NCCCCCN1CCCN(C(=O)Nc2ccc(F)c(F)c2)CC1	0.8 µM
COc1ccc(NC(=O)c2ccc(-c3nc(-c4ccc(Cl)cc4)cs3)cc2)cc1N1CCN(C)CC1	0.92 µM
COc1ccc(N2CCN(CCc3ccc(NC(=O)c4ccc([N+](=O)[O-])cc4)cc3)CC2)c(OC)c1	1.17 µM
O=C(Nc1ccccc1)Nc1cccc(-c2nn3c(OCC4CCCCN4)cccc3c2-c2ccncc2)c1 (stereo unspecified)	0.86 µM
Cc1cc(NCCC(=O)NCCOc2ccccc2)nc(NCCOc2ccccc2)n1	0.87 µM
Cc1ccc2nc(C)cc(NN=Cc3ccccc3F)c2c1	0.17 µM
COc1ccc(C(c2ccc(N(C)C)cc2)c2ccc(N(C)C)cc2)cc1	0.06 µM
O=C(c1ccco1)N1CCN(c2nc(-c3ccc(Cl)cc3)nc3ccccc23)CC1	0.93 µM
O=C(/C=C/c1ccc(Cl)c(Cl)c1)N1CCC(CCN2CCC(c3nc4ccc(O)cc4[nH]3)CC2)CC1	0.34 µM
OC(CNCCCc1ccccc1)c1cc(OCc2ccccc2)cc(OCc2ccccc2)c1 (stereo unspecified)	0.85 µM
CCNc1cc(C(=O)N[C@@H](Cc2ccc(Cl)cc2)[C@H](O)CNC2CCCCC2)cc(N2CCCCS2(=O)=O)c1	0.15 µM

SMILES	IC50
CCCNCc1ccc(-c2ccc(CN(CCOC)C(=O)CCC(=O)c3ccc(OC)c(F)c3)cc2)nc1	0.68 µM
O=C(/C=C/c1ccc(Cl)c(Cl)c1)NCCCCCN1CCC(c2[nH]nc(-c3ccccc3)c2Br)CC1	0.72 µM
Cc1cc(N[C@@H](Cc2ccccc2)C(=O)NCc2cccc(F)c2)nc(NCCCOC(C)C)n1	0.92 µM
CN1CCC(C(=O)Nc2ccc(-c3ccc(-c4nc5ccccc5[nH]4)s3)cc2)CC1	0.82 µM
CCOc1ccc(Nc2ccc3nonc3c2S(=O)(=O)Nc2ccc(OCC)cc2)cc1	0.51 µM
CC(C)Sc1nc2c(c(=O)n1Cc1ccco1)C1(CCCC1)Cc1ccccc1-2	1.63 µM
CC(=O)N[C@H](C(=O)Nc1ccc(-c2ccc(-c3nc4ccc(C(F)(F)F)cc4[nH]3)s2)cc1)C(C)C	1.03 µM
Cc1cccc2[nH]c(-c3ccc(-c4ccc(CNCc5cccc(N)c5)cc4)cc3)nc12	0.57 µM
O=C(NC(CCCN1CCC2(CC1)OCc1ccccc12)c1ccc(Cl)c(Cl)c1)c1cc(C(F)(F)F)cc(C(F)(F)F)c1 (stereo unspecified)	0.54 µM
COc1ccc(-c2cnn3ccc(Nc4cc(OC)c(OC)c(OC)c4)nc23)cc1OC	0.65 µM
NC(=NCC1CC1c1ccccc1)c1cccc(C(N)=NCC2CC2c2ccccc2)n1 (stereo unspecified)	1.76 µM
CCC1(CC)C(=O)N=C(N2CCCCC2)N(C)C1=O	0.3 µM
CC1(C)CCNc2cc(NC(=O)c3ccc(-c4ncccc4C(F)(F)F)cc3)ccc21	0.9 µM
Cn1nccc1C(=O)NCCNCc1ccc(-c2ccc(-c3nc4ccc(C(F)(F)F)cc4[nH]3)s2)cc1	0.19 µM
Clc1cc(Cl)c2cc(CNCCCNc3ccc4ccccc4n3)[nH]c2c1	0.34 µM
O=C(NCCCCN1CCC(c2ccc3c(c2OCc2ccccn2)CCCC3)CC1)c1ccc(NC(=O)c2ccc(Cl)cc2)cc1	0.8 µM
CCCc1cc(Cc2cnc(N)nc2N)cc(CCC)c1O	0.28 µM
CCCCCCP(=O)(COc1ccc(CCN(CC(O)COc2cccc3[nH]c(C(N)=O)cc23)CC(O)COc2cccc3[nH]c(C(N)=O)cc23)cc1)OCCCC (stereo unspecified)	0.72 µM
Cc1ccc2[nH]c3c(c2c1)CC(C(=O)NCCC(C)C)NC31CCN(Cc2ccccc2)CC1 (stereo unspecified)	0.93 µM
CCc1ccc(NC(=O)c2cccc(CN3CCCN(Cc4ccc(OC)cc4)CC3)c2)cc1	0.92 µM
COc1cc(F)c2ncc(Cl)c([C@@H](O)CN3CCC(NCc4ccc5c(n4)NC(=O)CO5)CC3)c2c1	0.12 µM
COc1ccc2c(NN=Cc3ccc(F)cc3)cc(C)nc2c1	0.77 µM
CN1CCC(c2ccc(NC(=O)c3ccc(-c4cccc(C(F)(F)F)c4)o3)cc2)CC1	1.13 µM
CC(C)N1CCN(c2ccc(OCCCCN3CCN(c4cccc(Cl)c4Cl)CC3)cc2Cl)CC1	1.04 µM

SMILES	IC50
CCCn1c(=N)c(C(=O)NCCc2ccccc2)cc2c(=O)n3cccc(C)c3nc21	1.12 µM
Fc1cccc(COc2ccc(Nc3ncnc4cc(/C=C/[C@@H]5CCCN5)sc34)cc2Cl)c1	0.59 µM
CNC(=O)c1cnc(Nc2ccc(OCC(O)CN(C)C)cc2)nc1Nc1cccc([N+](=O)[O-])c1 (stereo unspecified)	0.62 µM
O=C(NCCc1ccc(Cl)c(Cl)c1)[C@@H]1CCCN1C(=O)c1ccc(O)c(-c2ccc(Cl)c(Cl)c2)c1	0.55 µM
COc1ccc2c(NN=Cc3ccc(Cl)cc3)ccnc2c1	0.87 µM
CN(C)CCCn1c(N)c(-c2nc3ccccc3[nH]2)c2nc(C#N)c(C#N)nc21	0.59 µM
N#Cc1ccc2c(c1)CCN(CCC1CCC(NC(=O)/C=C/c3c[nH]c4c(Br)cccc34)CC1)CC2 (stereo unspecified)	0.38 µM
COc1ccc(CCNCCCCCCNCCc2ccc(Cl)c(Cl)c2)cc1OC	0.93 µM
CCCCCCCN(Cc1ccc(OC(C)(C)C(=O)OCC)cc1)C(=O)Cc1ccc(F)cc1F	1.03 µM
O=[N+]([O-])c1ccccc1C=NNc1ccnc2cc(Cl)ccc12	0.88 µM
Cc1onc(-c2ccccc2)c1-c1nc(NCCC(c2ccccc2)c2ccccc2)no1	0.84 µM
Cc1cc(-c2ccc(NC(=O)Nc3ccc4nccc(N5CCN(C)CC5)c4c3)cc2C)cc(C)n1	0.15 µM
Oc1ccc2[nH]c(-c3ccc(F)cc3F)nc2c1CN1CCC(O)(c2ccccc2)CC1	0.84 µM
COc1cccc(CN2CCCN(Cc3cccc(NC(=O)c4ccc(-c5ccccc5)cc4)c3)CC2)c1	0.24 µM
CC(Oc1c(C2CCN(CCCCNC(=O)c3ccc(-c4ccc(C#N)cc4)cc3)CC2)ccc2c1CCCC2)C(N)=O (stereo unspecified)	0.68 µM
COc1ccccc1CNC(=O)C(=O)Nc1c(-c2ccccc2)[nH]c2ccccc12	0.74 µM
Cc1cccc2[nH]c(-c3ccc(-c4cccc(CNCCCN5CCCC5=O)c4)s3)nc12	0.59 µM
CCCC1(NC[C@@H](O)[C@H](Cc2ccccc2)NC(=O)c2cc(NCC)cc(N3CCCCS3(=O)=O)c2)CCCC1	0.5 µM
O=C(NC1CCN(CC2(c3ccc(Cl)cc3)CCCCC2)CC1)c1ccn[nH]1	0.08 µM
N#Cc1ccc2c(c1)CN(CCCCNC(=O)c1ccc(-c3ccccc3)cc1)CC2	0.89 µM
Oc1ccccc1CNCC12CC3CC(CC(C3)C1)C2	0.28 µM
COc1cc(Nc2nccc(N3CCC(NC(=O)Nc4ccc5c(c4)OCO5)C3)n2)cc(OC)c1OC (stereo unspecified)	0.76 µM
Oc1ccc(CCNc2nc(NCCOc3cccc4ccccc34)nc(N3CCNCC3)n2)cc1	0.9 µM
COc1ccc(C=CC(=O)NC2CCC(CN3CCC(c4c[nH]c5ccccc45)CC3)CC2)cc1OC (stereo unspecified)	0.84 µM and 0.8 µM
